According to paper PMC9415896, “Total Synthesis of the Antimycobacterial Natural Product Chlorflavonin and Analogs via a Late-Stage Ruthenium(II)-Catalyzed ortho-C(sp^2)-H-Hydroxylation” (Pharmaceuticals, 2022):
In brackets after ≈: the same amount, converted by molar mass.

What was measured:
[1] = system: human cell lines MRC-5, HEK-293, THP-1; format: cell-based
Procedure: For the determination of the cytotoxicity of the compounds, different human cell lines were used. The human fetal lung fibroblast cell line MRC-5 (American Type Culture Collection) was incubated in Eagle’s Minimum Essential Medium (EMEM) containing 1% (v/v) Na-pyruvate, whereas the human embryonic kidney cell line HEK-293 (CLS Cell Lines Service GmbH) was cultivated in EMEM supplemented with 2 mM L-glutamine, 1% (v/v) non-essential amino acids, and 1 mM sodium pyruvate. The human monocyte cell line THP-1 (Deutsche Sammlung von Mikroogranismen und Zellkulturen GmbH) was cultured in RPMI 1640 medium. All media were supplemented with 10% (v/v) heat-inactivated fetal bovine serum (FBS).
The cell densities were quantified using a hemocytometer and then adjusted to 10^6 cells/mL. Next, 100 µL per well were seeded in 96-well microtiter plates to yield an inoculation cell density of […] cells per well. Compounds were added employing two-fold serial dilutions resulting in final concentrations ranging from 100 to 0.78 µM. Cells were incubated for two days at 37 °C and 5% CO2 in a humidified atmosphere. […] Fluorescence was measured in a TECAN microplate reader (excitation of 540 nm, emission of 590 nm). The percentage of growth was calculated with respect to DMSO (100% growth) and Triton X-100 (0% growth) controls.

[2] = Chemical stability in phosphate buffer (HPLC-UV); format: physicochemical
Procedure: Stability testing was performed in phosphate buffer pH 2.0 and 7.4 (prepared according to Ph. Eur. 10) at 20 °C over a period of 48 h. Therefore, 0.4 mg of substance was dissolved in Tween® 20 und ethanol (7/3 v/v) and diluted with the respective phosphate buffer. The solution was shaken with an IKA KS 260 basic (250 min^−1) at 25 °C for 48 h. Analysis was performed after 1, 3, 6, 24, and 48 h by comparing the area under the curve (A.U.C.), which was measured with HPLC-UV at 254 nm (n = 1).

[3] = not given; remark: listed apart in the source
[4] = Single-point metabolic stability in human liver microsomes; format: in vitro ADME
Procedure: The metabolic stability assay was performed in Human Liver Microsomes (HLM) using a single-point metabolic stability assay. Briefly, the compounds were incubated at 1 μM in 0.4 mg/mL human mixed-gender liver microsomes (Xenotech, Kansas City, KS, USA, pool of 50) for 30 min at 37 °C. Reactions were quenched by adding ice-cold acetonitrile containing internal standard. The samples were then centrifuged and analyzed by LC-MS/MS for the disappearance of the parent compound. Half-life, clearance, and hepatic […] ratios were determined using standard equations [47, 48]. Propranolol and midazolam were used as positive controls and treated similarly.

[5] = system: M. tuberculosis H37Rv; assay: Minimal inhibitory concentration (MIC) resazurin assay; format: cell-based, Mycobacterium tuberculosis
[6] = system: Mtb XDR clinical isolates; settings: ref Rehberg et al. [14]; cited from earlier work
[7] = system: human fetal lung fibroblast cell line MRC-5; settings: ref Rehberg et al. [14]; cited from earlier work
[8] = physchem
[9] = system: M. tuberculosis H37Rv; parameters: method as in Rehberg et al. [14]; settings: ref Rehberg et al. [14], cited from earlier work
[10] = system: monocyte cell line THP-1; settings: ref Rehberg et al. [14]; cited from earlier work
[11] = physchem; settings: pH 7.4
[12] = system: Mtb; parameters: method as in PMID 9818746; settings: Mtb-infected mice; cited from earlier work

In the case of COc1cc(O)c2c(=O)c(OC)c(-c3cccc(C)c3O)oc2c1OC, the melting point is reported as 213.3 °C.
COc1cc(O)c2c(=O)c(OC)c(-c3cccc(Br)c3OC(F)F)oc2c1OC showed a melting point of 162.4 °C.
COc1cc(O)c2c(=O)c(OC)c(-c3cc(F)cc(Cl)c3O)oc2c1OC gave a melting point of 245 °C.
Compound COc1cc(O)c2c(=O)c(OC)c(-c3ccc(Cl)cc3O)oc2c1OC has a melting point of 240.7 °C.
With COc1cc(O)c2c(=O)c(OC)c(-c3ccc(Cl)c(O)c3)oc2c1OC the melting point was 48 °C.
With COc1cc(O)c2c(=O)c(OC)c(-c3cccc(Cl)c3Cl)oc2c1OC the melting point was 184.8 °C.
For COc1cc(O)c2c(=O)c(OC)c(-c3cccc(Cl)c3)oc2c1OC, the melting point was 188.3 °C.
In the case of COc1cc(O)c2c(=O)c(OC)c(-c3cccc(Br)c3O)oc2c1OC [BF, bromflavonin], the “cytotoxicity toward human cells” value [1] is reported as “no cytotoxicity”, the “drug content after 48 h” value ([2]; phosphate buffer pH 2.0, 48 h) is reported as 99% and the “drug content after 48 h” value ([2]; phosphate buffer pH 7.4, 48 h) is reported as 99%. For the same compound, the “Water solubility at pH 7.4” value [3] was <5 μM, the “CLint, app (predicted in vivo intrinsic clearance)” value [4] was 53.4 and the “Minimal Inhibitory Concentrations (MIC90)” value [5] was 0.78 μm. For the same compound, the antimycobacterial activity ([5]; Mtb H37Rv, in words) was “submicromolar”.
For COc1cc(O)c2c(=O)c(OC)c(-c3cccc(Cl)c3O)oc2c1OC [CF, chlorflavonin], the melting point was 213.7 °C, the “drug content after 48 h” value ([2]; phosphate buffer pH 2.0, 48 h) was 99% and the “drug content after 48 h” value ([2]; phosphate buffer pH 7.4, 48 h) was 99%. The “in vitro growth inhibition” value [6] was “strong in vitro growth inhibition”, the cytotoxicity [7] was “no cytotoxicity” and the pKa ([8]; pKa1 (2′-OH)) was 6.8 ± 0.07. The pKa ([8]; pKa2 (5-OH)) was 10.4, the “remaining after 30 min” value ([4]; 1 μM, human liver microsomes 0.4 mg/mL, 30 min, 37 °C) was 48% and the “effect of mono treatment” value ([9]; mono treatment with CF) was “bacteriostatic effect”. The MIC90 ([9]; virulent Mtb H37Rv, in vitro growth inhibition) was 1.56 µM (≈ 0.591 µg/mL), the combination effect ([9]; with delamanid and isoniazid, including intracellular activity against infected human macrophages) was “synergistic efficacy” and the cytotoxicity [10] was “no cytotoxicity”. The solubility at 24 h [11] was < 5 µM.
Work on COc1cc(O)c2c(=O)c(OC)c(-c3cccc(Br)c3O)oc2c1OC [Compound 1a] yielded a melting point of 210.2 °C.
Compound COc1cc(O)c2c(=O)c(OC)c(-c3cccc(F)c3O)oc2c1OC [Compound 1b] has a melting point of 208.6 °C.
Work on COc1cc(O)c2c(=O)c(OC)c(-c3cccc(I)c3O)oc2c1OC [Compound 1c] yielded a melting point of 223.4 °C.
COc1cc(O)c2c(=O)c(OC)c(-c3cccc(C(F)(F)F)c3O)oc2c1OC [Compound 1d] showed a melting point of 195.4 °C.
Work on COc1cc(O)c2c(=O)c(OC)c(-c3cccc(Br)c3F)oc2c1OC [Compound 1f] yielded a melting point of 217.4 °C.
Compound COc1cc(O)c2c(=O)c(OC)c(-c3cc(F)cc(Br)c3O)oc2c1OC [Compound 1i] has a melting point of 251.4 °C.
In the case of COC(=O)c1ccccc1S(=O)(=O)NC(=O)Nc1nc(C)cc(C)n1 [sulfometuron methyl], the “proliferation of the pathogen in the host's lungs” value [12] is given as “significantly reduced proliferation”.
